The target of test [1] is T1, AdenosineA1 (Homo sapiens, UniProt P30542).
T1 sequence (P30542 1-326): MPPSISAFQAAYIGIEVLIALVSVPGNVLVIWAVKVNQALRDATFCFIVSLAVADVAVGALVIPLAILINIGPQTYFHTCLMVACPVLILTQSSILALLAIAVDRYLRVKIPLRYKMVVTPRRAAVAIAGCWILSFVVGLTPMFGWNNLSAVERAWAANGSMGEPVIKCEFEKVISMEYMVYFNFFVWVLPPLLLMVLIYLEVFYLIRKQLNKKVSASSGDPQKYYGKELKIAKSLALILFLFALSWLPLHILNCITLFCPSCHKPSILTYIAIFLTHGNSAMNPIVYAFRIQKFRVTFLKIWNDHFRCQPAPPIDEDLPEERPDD
The test is described as follows: AdenosineA1 GTPγS functional assay. It is filed as biochemical. The note with it: 10 μM; compound may be / can be tested. As to the method: (§1) The compound is additionally tested in AdenosineA1, AdrenergicA2A, DopamineD25, Histamine H1-, and μ-Opiate GTPγS functional assays using a concentration of 10 μM.
(§2) The compound may be additionally tested in AdenosineA1, AdrenergicA2A, DopamineD25, Histamine H1-, and μ-Opiate GTPγS functional assays using a concentration of 10 μM.
(§3) The compound can be additionally tested in AdenosineA1, AdrenergicA2A, DopamineD25, Histamine H1-, and μ-Opiate GTPγS functional assays using a concentration of 10 μM.

In test [2] the target is T2, AdrenergicA2A (Homo sapiens, UniProt P08913).
T2 sequence (P08913 1-465): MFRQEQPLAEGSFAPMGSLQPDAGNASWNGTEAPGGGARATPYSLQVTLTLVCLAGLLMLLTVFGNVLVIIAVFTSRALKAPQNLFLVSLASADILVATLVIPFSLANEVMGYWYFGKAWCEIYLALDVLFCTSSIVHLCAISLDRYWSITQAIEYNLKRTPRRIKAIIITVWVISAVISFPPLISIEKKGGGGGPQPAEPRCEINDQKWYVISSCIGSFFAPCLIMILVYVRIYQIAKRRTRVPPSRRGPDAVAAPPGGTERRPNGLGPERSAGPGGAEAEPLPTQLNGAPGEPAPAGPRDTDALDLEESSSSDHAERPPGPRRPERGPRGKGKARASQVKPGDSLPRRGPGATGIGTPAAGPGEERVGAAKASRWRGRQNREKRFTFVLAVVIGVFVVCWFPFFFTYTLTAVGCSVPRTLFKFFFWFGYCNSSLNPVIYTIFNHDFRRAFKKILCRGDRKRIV
In words: AdrenergicA2A GTPγS functional assay. The format is biochemical. Conditions: 10 μM; compound may be / can be tested. The method, then:
as §1, §2, §3

With `O=c1c(O)c(-c2ccc(O)c(OCP(=O)(O)O)c2)oc2cc(O)cc(O)c12` [Compound 2, Quercetin-3′-O-methylphosphonic acid], the “antagonist activity in the AdenosineA1 assay” value in test [1] is recorded as 48%. In addition, in test [2], the “inhibition in the AdrenergicA2A assay” value is “marked negative inhibition”.

These data come from patent US20100297020A1, “PHOSPHORYLATED AND PHOSPHONATED PYRONE ANALOGS FOR THERAPEUTIC TREATMENT” (Limerick Biopharma, Inc., priority 2008, published 2010).
